Columns and labels:
[1] = test system: cardiac ventricular repolarization (QT interval); experiment: Pooled clinical data from over 500 patients treated with single agent panobinostat: QTc prolongation; format: in vivo, human
From the text: Panobinostat may prolong cardiac ventricular repolarization (QT interval).

[2] = test system: patients with relapsed multiple myeloma; experiment: Randomized, double-blind, placebo-controlled, multicenter study (PANORAMA-1) of panobinostat plus bortezomib and dexamethasone; format: in vivo
Method: Treatment was administered for a maximum of 16 cycles (48 weeks).
Demographics and baseline disease characteristics were balanced between arms. The median age was 63 years (range 28 to 84); 42% of patients were older than 65 years; 53% of patients were male. The ECOG (Eastern Cooperative Oncology Group) performance status was 0 to 1 in 93% of patients. The median number of prior therapies was 1; 48% of patients received 2 or 3 prior lines of therapy. More than half (57%) of the patients had prior stem cell transplantation. The most common prior antineoplastic therapies were corticosteroids (90%), melphalan (80%), thalidomide (53%), cyclophosphamide (47%), bortezomib (44%), and lenalidomide (19%). The median duration of follow-up was 29 months in both arms.
The primary endpoint was progression-free survival (PFS), using modified European Bone Marrow Transplant Group (EBMT) criteria, as assessed by the investigators. […] The efficacy and safety in a subgroup analysis of 193 patients who had received prior treatment with both bortezomib and an immunomodulatory agent and a median of 2 prior therapies as the benefit: risk appeared to be greater in this more heavily pretreated population than in the overall trial population. Of these 193 patients, 76% of them had received ≥2 prior lines of therapy.

`Cc1[nH]c2ccccc2c1CCNCc1ccc(/C=C/C(=O)NO)cc1` [panobinostat] was tested, and the “incidence of CTC Grade 3 QTc prolongation (QTcF >500 msec)” value ([1]; at a dose of 60 mg or higher) was ≥ 5%, the “incidence of CTC Grade 3 QTc prolongation (QTcF >500 msec)” value ([1]; multiple indications, different dose levels, overall) was “approximately 1%” and the serious toxicities observed ([2]; PANORAMA clinical study, patients receiving panobinostat) was “severe and fatal ischemic events, severe arrhythmias and ECG changes”. The gastrointestinal toxicity ([2]; in vivo) was “common”.

Reference: US20200093795A1 (Secura Bio, Inc., priority 2015, published 2020)
